≈ marks a conversion by molar mass, not a printed value.
Test system: Staphylococcus aureus
Experiment: Antibacterial activity against hospital-acquired Methicillin -resistant Staphylococcus aureus ATCC BAA-811 by CLSI method
Type: functional
Conditions: not given

Structure (SMILES)	MIC [µg/mL]
CCCCCN(CCCCC)Cc1cc(C(=O)O)ccc1NC(=O)c1cc2cc(F)cc(NC)c2[nH]c1=O	0.5 (≈ 0.953 µM)

Test system: Staphylococcus aureus
Experiment: Antibacterial activity against Staphylococcus aureus ATCC 29213 by CLSI method
Type: functional
Conditions: not given

Structure (SMILES)	MIC [µg/mL]
CCCCCN(CCCCC)Cc1cc(C(=O)O)ccc1NC(=O)c1cc2cc(F)cc(NC)c2[nH]c1=O	0.06 (≈ 0.114 µM)

Target: DNA topoisomerase 2-alpha (Homo sapiens, UniProt P11388)
Experiment: Inhibition of human topoisomerase 2alpha
Type: ADME
Conditions: not given

Sequence of DNA topoisomerase 2-alpha (P11388 whole entry): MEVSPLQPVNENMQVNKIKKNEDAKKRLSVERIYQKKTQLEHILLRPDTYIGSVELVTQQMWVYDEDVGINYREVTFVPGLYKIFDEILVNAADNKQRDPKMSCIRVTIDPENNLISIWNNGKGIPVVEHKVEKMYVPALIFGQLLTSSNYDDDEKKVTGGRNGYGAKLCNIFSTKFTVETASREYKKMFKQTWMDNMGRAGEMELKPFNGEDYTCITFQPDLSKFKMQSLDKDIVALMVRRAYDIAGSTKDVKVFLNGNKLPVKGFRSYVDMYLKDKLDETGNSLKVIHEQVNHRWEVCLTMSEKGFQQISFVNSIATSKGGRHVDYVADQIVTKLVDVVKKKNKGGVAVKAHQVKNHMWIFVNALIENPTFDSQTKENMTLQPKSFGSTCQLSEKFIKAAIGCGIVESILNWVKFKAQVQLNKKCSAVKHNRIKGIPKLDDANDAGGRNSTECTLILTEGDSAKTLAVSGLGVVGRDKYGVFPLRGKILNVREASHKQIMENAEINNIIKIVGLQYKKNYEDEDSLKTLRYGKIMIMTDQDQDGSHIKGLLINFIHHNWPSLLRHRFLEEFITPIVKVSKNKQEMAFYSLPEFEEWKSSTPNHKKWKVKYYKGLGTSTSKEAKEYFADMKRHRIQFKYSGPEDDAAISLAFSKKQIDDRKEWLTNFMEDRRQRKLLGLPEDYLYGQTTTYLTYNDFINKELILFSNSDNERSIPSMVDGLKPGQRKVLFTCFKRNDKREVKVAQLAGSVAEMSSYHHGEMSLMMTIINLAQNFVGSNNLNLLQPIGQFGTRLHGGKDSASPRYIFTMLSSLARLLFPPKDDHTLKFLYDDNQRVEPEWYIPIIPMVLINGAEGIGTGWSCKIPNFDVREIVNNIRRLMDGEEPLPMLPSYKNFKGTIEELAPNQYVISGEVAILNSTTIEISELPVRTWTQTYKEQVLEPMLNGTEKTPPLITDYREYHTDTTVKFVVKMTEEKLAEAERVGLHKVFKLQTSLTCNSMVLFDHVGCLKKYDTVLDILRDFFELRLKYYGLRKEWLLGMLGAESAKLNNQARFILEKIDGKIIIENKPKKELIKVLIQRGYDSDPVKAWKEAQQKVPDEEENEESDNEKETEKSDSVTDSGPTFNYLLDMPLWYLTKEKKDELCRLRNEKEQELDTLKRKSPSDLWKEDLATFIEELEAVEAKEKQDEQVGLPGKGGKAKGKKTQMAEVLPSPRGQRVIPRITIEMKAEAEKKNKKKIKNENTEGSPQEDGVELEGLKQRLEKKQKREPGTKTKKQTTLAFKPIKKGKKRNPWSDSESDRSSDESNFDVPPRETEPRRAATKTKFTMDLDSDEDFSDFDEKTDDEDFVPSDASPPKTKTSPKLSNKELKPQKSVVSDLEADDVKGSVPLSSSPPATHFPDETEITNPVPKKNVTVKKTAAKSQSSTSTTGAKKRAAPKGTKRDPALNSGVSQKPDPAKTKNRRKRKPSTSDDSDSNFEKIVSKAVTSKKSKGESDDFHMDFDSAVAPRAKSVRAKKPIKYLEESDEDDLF

Structure (SMILES)	IC50 [nM]
CCCCCN(CCCCC)Cc1cc(C(=O)O)ccc1NC(=O)c1cc2cc(F)cc(NC)c2[nH]c1=O	> 100000

Target: DNA gyrase (Escherichia coli, UniProt P0AES4+P0AES6)
Experiment: Inhibition of Escherichia coli DNA gyrase by measuring supercoiling activity incubated for 60 mins by fluorescence based assay
Type: protein-complex assay
Conditions: not given

Structure (SMILES)	IC50 [nM]
CCCCCN(CCCCC)Cc1cc(C(=O)O)ccc1NC(=O)c1cc2cc(F)cc(NC)c2[nH]c1=O	0.8

Test system: Escherichia coli
Experiment: Antibacterial activity against Escherichia coli ATCC 25922 in presence of PAbetaN by CLSI method
Type: functional
Conditions: not given

Structure (SMILES)	MIC [µg/mL]
CNc1cccc2cc(C(=O)Nc3ccc(C(=O)O)cc3)c(=O)[nH]c12	< 0.03
CCCCCN(CCCCC)Cc1cc(C(=O)O)ccc1NC(=O)c1cc2cc(F)cc(NC)c2[nH]c1=O	≤ 0.03

Test system: Prevotella melaninogenica
Experiment: Antibacterial activity against Prevotella melaninogenica JCM6325 by CLSI method
Type: functional
Conditions: not given

Structure (SMILES)	MIC [µg/mL]
CO/N=C(\C(=O)N[C@@H]1C(=O)N2C(C(=O)O)=C(CSc3nc(=O)c(O)nn3C)CS[C@H]12)c1csc(N)n1 [CEFTRIAXONE]	1 (≈ 1.8 µM)
CCC[C@@H]1C[C@@H](C(=O)N[C@@H]([C@H]2O[C@H](SC)[C@H](O)[C@@H](O)[C@H]2O)[C@H](C)Cl)N(C)C1 [CLINDAMYCIN]	0.03 (≈ 0.0706 µM)

Test system: not listed separately
Experiment: Cytotoxicity against human HepG2 cells assessed as reduction in cell viability at 10 uM incubated for 48 hrs by CCK-8 assay
Conditions: hepg2

Structure (SMILES)	cytotoxicity at 48 h, 10 µM [%]
CCCCCN(CCCCC)Cc1cc(C(=O)O)ccc1NC(=O)c1cc2cc(F)cc(NC)c2[nH]c1=O	8.11

Test system: Peptostreptococcus anaerobius
Experiment: Antibacterial activity against Peptostreptococcus anaerobius ATCC 27337 by CLSI method
Type: functional
Conditions: not given

Structure (SMILES)	MIC [µg/mL]
CO/N=C(\C(=O)N[C@@H]1C(=O)N2C(C(=O)O)=C(CSc3nc(=O)c(O)nn3C)CS[C@H]12)c1csc(N)n1 [CEFTRIAXONE]	0.5 (≈ 0.902 µM)
CCC[C@@H]1C[C@@H](C(=O)N[C@@H]([C@H]2O[C@H](SC)[C@H](O)[C@@H](O)[C@H]2O)[C@H](C)Cl)N(C)C1 [CLINDAMYCIN]	0.25 (≈ 0.588 µM)
CCCCCN(CCCCC)Cc1cc(C(=O)O)ccc1NC(=O)c1cc2cc(F)cc(NC)c2[nH]c1=O	0.12 (≈ 0.229 µM)

Test system: Fusobacterium nucleatum
Experiment: Antibacterial activity against Fusobacterium nucleatum JCM8532 by CLSI method
Type: functional
Conditions: not given

Structure (SMILES)	MIC [µg/mL]
CO/N=C(\C(=O)N[C@@H]1C(=O)N2C(C(=O)O)=C(CSc3nc(=O)c(O)nn3C)CS[C@H]12)c1csc(N)n1 [CEFTRIAXONE]	0.5 (≈ 0.902 µM)
CCCCCN(CCCCC)Cc1cc(C(=O)O)ccc1NC(=O)c1cc2cc(F)cc(NC)c2[nH]c1=O	1 (≈ 1.91 µM)

Test system: not listed separately
Experiment: Inhibition of Escherichia coli topoisomerase IV by measuring relaxation activity incubated for 30 mins by fluorescence based assay
Conditions: not given

Structure (SMILES)	IC50 [nM]
CNc1cccc2cc(C(=O)Nc3ccc(C(=O)O)cc3)c(=O)[nH]c12	980

Test system: Enterococcus faecium
Experiment: Antibacterial activity against Enterococcus faecium ATCC 35667 by CLSI method
Type: functional
Conditions: not given

Structure (SMILES)	MIC [µg/mL]
CCCCCN(CCCCC)Cc1cc(C(=O)O)ccc1NC(=O)c1cc2cc(F)cc(NC)c2[nH]c1=O	0.06 (≈ 0.114 µM)

Test system: Enterococcus faecalis
Experiment: Antibacterial activity against Enterococcus faecalis ATCC 29212 by CLSI method
Type: functional
Conditions: not given

Structure (SMILES)	MIC [µg/mL]
CCCCCN(CCCCC)Cc1cc(C(=O)O)ccc1NC(=O)c1cc2cc(F)cc(NC)c2[nH]c1=O	0.015 (≈ 0.0286 µM)

Test system: Clostridioides difficile
Experiment: Antibacterial activity against Clostridioides difficile ATCC 700057 by CLSI method
Type: functional
Conditions: not given

Structure (SMILES)	MIC [µg/mL]
CCC[C@@H]1C[C@@H](C(=O)N[C@@H]([C@H]2O[C@H](SC)[C@H](O)[C@@H](O)[C@H]2O)[C@H](C)Cl)N(C)C1 [CLINDAMYCIN]	8 (≈ 18.8 µM)

Test system: not listed separately
Experiment: Cytotoxicity against human HepG2 cells assessed as reduction in cell viability at 50 uM incubated for 48 hrs by CCK-8 assay
Conditions: hepg2

Structure (SMILES)	cytotoxicity at 48 h, 50 µM [%]
CCCCCN(CCCCC)Cc1cc(C(=O)O)ccc1NC(=O)c1cc2cc(F)cc(NC)c2[nH]c1=O	46.7

Test system: Streptococcus pneumoniae
Experiment: Antibacterial activity against Streptococcus pneumoniae ATCC 49619 by CLSI method
Type: functional
Conditions: not given

Structure (SMILES)	MIC [µg/mL]
CCCCCN(CCCCC)Cc1cc(C(=O)O)ccc1NC(=O)c1cc2cc(F)cc(NC)c2[nH]c1=O	0.015 (≈ 0.0286 µM)

Test system: Staphylococcus aureus
Experiment: Antibacterial activity against community-acquired Methicillin -resistant Staphylococcus aureus ATCC BAA-1556 by CLSI method
Type: functional
Conditions: not given

Structure (SMILES)	MIC [µg/mL]
CCCCCN(CCCCC)Cc1cc(C(=O)O)ccc1NC(=O)c1cc2cc(F)cc(NC)c2[nH]c1=O	0.5 (≈ 0.953 µM)

Test system: Escherichia coli
Experiment: Antibacterial activity against Escherichia coli ATCC 25922 assessed as reduction in bacterial cell growth incubated for 18 hrs by CSLI based broth microdilution method
Type: functional
Conditions: not given

Structure (SMILES)	MIC [µg/mL]
CNc1cccc2cc(C(=O)Nc3ccc(C(=O)O)cc3)c(=O)[nH]c12	64 (≈ 190 µM)
CO[C@@H]1[C@@H](OC(N)=O)[C@@H](O)[C@H](Oc2ccc3c(O)c(NC(=O)c4ccc(O)c(CC=C(C)C)c4)c(=O)oc3c2C)OC1(C)C [NOVOBIOCIN]	64 (≈ 104 µM)

Test system: Staphylococcus aureus
Experiment: Antibacterial activity against Staphylococcus aureus ATCC 29213 assessed as reduction in bacterial cell growth incubated for 18 hrs by CSLI based broth microdilution method
Type: functional
Conditions: not given

Structure (SMILES)	MIC [µg/mL]
CNc1cccc2cc(C(=O)Nc3ccc(C(=O)O)cc3)c(=O)[nH]c12	16 (≈ 47.4 µM)
CO[C@@H]1[C@@H](OC(N)=O)[C@@H](O)[C@H](Oc2ccc3c(O)c(NC(=O)c4ccc(O)c(CC=C(C)C)c4)c(=O)oc3c2C)OC1(C)C [NOVOBIOCIN]	0.13 (≈ 0.212 µM)

Test system: Porphyromonas gingivalis
Experiment: Antibacterial activity against Porphyromonas gingivalis JCM8525 by CLSI method
Type: functional
Conditions: not given

Structure (SMILES)	MIC [µg/mL]
CO/N=C(\C(=O)N[C@@H]1C(=O)N2C(C(=O)O)=C(CSc3nc(=O)c(O)nn3C)CS[C@H]12)c1csc(N)n1 [CEFTRIAXONE]	≤ 0.12
CCC[C@@H]1C[C@@H](C(=O)N[C@@H]([C@H]2O[C@H](SC)[C@H](O)[C@@H](O)[C@H]2O)[C@H](C)Cl)N(C)C1 [CLINDAMYCIN]	≤ 0.015
CCCCCN(CCCCC)Cc1cc(C(=O)O)ccc1NC(=O)c1cc2cc(F)cc(NC)c2[nH]c1=O	0.12 (≈ 0.229 µM)

Test system: Streptococcus pneumoniae
Experiment: Antibacterial activity against genotype penicillin-resistant Streptococcus pneumoniae by CLSI method
Type: functional
Conditions: not given

Structure (SMILES)	MIC50 [µg/mL]	MIC90 [µg/mL]
CO/N=C(\C(=O)N[C@@H]1C(=O)N2C(C(=O)O)=C(CSc3nc(=O)c(O)nn3C)CS[C@H]12)c1csc(N)n1 [CEFTRIAXONE]	1 (≈ 1.8 µM)	4 (≈ 7.21 µM)

Test system: Enterococcus faecalis
Experiment: Antibacterial activity against vancomycin-resistant Enterococcus faecalis ATCC 51575 by CLSI method
Type: functional
Conditions: not given

Structure (SMILES)	MIC [µg/mL]
CCCCCN(CCCCC)Cc1cc(C(=O)O)ccc1NC(=O)c1cc2cc(F)cc(NC)c2[nH]c1=O	0.015 (≈ 0.0286 µM)

Test system: Haemophilus influenzae
Experiment: Antibacterial activity against Haemophilus influenzae ATCC 43095 by CLSI method
Type: functional
Conditions: not given

Structure (SMILES)	MIC [µg/mL]
CCCCCN(CCCCC)Cc1cc(C(=O)O)ccc1NC(=O)c1cc2cc(F)cc(NC)c2[nH]c1=O	0.25 (≈ 0.477 µM)

Test system: Bacteroides fragilis
Experiment: Antibacterial activity against Bacteroides fragilis ATCC 25285 by CLSI method
Type: functional
Conditions: not given

Structure (SMILES)	MIC [µg/mL]
CO/N=C(\C(=O)N[C@@H]1C(=O)N2C(C(=O)O)=C(CSc3nc(=O)c(O)nn3C)CS[C@H]12)c1csc(N)n1 [CEFTRIAXONE]	64 (≈ 115 µM)
CCC[C@@H]1C[C@@H](C(=O)N[C@@H]([C@H]2O[C@H](SC)[C@H](O)[C@@H](O)[C@H]2O)[C@H](C)Cl)N(C)C1 [CLINDAMYCIN]	1 (≈ 2.35 µM)
CCCCCN(CCCCC)Cc1cc(C(=O)O)ccc1NC(=O)c1cc2cc(F)cc(NC)c2[nH]c1=O	> 32
